Assay results as given in patent US20120121691A1, “Method for Increasing the Production of a Specific ACYL-Chain Dihydroceramide(s) for Improving the Effectiveness of Cancer Treatments” (priority 2010, published 2012).

How the values were obtained:
[1] = test system: MCF-7 breast cancer cells; assay: DIMSCAN cytotoxicity assay, MCF-7; assay type: cell-based; details: MCF-7, fatty acid 5 micromolar
Excerpt: (§1) Cell culture. The pre-T acute lymphoblastic leukemia cell lines MOLT-4 and CCRF-CEM, small cell lung cancer cell line NCI-H146, non-small cell lung cancer cell line NCI-H1792, colon cancer cell lines LoVo and HT-29, and breast cancer cell line MCF-7, were purchased from American Type Culture Collection, Manassas, Va., and grown at 20%/5% and 5%/5%, respectively. COG-LL-317 and COG-LL-332 pre-T acute lymphoblastic leukemia cell lines were obtained from the TTUHSC Cancer Center Cell Repository and grown at 5%/5%. Cell line identities were verified by short tandem repeat analysis and mycoplasma testing was performed. Cell lines were maintained in RPMI-1640 medium supplemented with 10% fetal bovine serum (FBS, Invitrogen) in humidified, 37° C. incubators. For all experiments, ALL cell lines were seeded at 2. cells/mL in RPMI-1640 medium supplemented with 15% fetal bovine serum. Solid tumor cell lines were plated at 5×cells/mL in RPMI-1640 medium supplemented with 10% fetal bovine serum.
(§2) Cytotoxicity Assay. Cytoxicity is determined using the DIMSCAN assay system (R. Proffitt et al., Cytometry 24, 204-213 (1996); T. Frgala et al., Proc. AACR, 36, 303 (1995). The system employs digital imaging microscopy to quantify viable cells, which selectively accumulate fluorescein diacetate to become brightly fluorescent. The system is capable of measuring cytotoxicity over a 4-5 log dynamic range by quenching the residual fluorescence of dead and dying cells with eosin Y and quantifying the total fluorescence of viable cells using digital thresholding. Measured fluorescence is directly proportionate to the number of viable cells. A comparison of the total fluorescence of a drug-treated cell population to the fluorescence of a similar number of untreated cells yields a survival fraction.
(§3) In brief, 5,000 to 25,000 cells/well depending on the cell line (5,000 for solid tumor, 25,000 for ALL cell lines) were replicate plated into 60 wells of a 96-well tissue culture plate in 0.1 cc media and allowed to attach or recover overnight. […]

MOLT-4 ALL cells = assay: DIMSCAN cytotoxicity assay, MOLT-4; assay type: cell-based, human; details: MOLT-4, sphinganine 1 μM, GT-11 0.5 μM, 48 hours
Excerpt: as §1
as §2, with “fraction. […]” for “fraction.”
(§4) The addition of C22:0-fatty acid, but not C18:0 or C22:1 fatty acids, increased cytotoxicity (FIGS. 7A-7F). […] Cytotoxicity was measured using DIMSCAN, and data was normalized to control and plotted as survival fraction (y-axis). […]

COG-LL-332 = assay: DIMSCAN cytotoxicity assay, COG-LL-332; assay type: cell-based; details: COG-LL-332, sphinganine 1 μM, GT-11 0.5 μM, 48 hours
Excerpt: as §1
as §2, with “fraction. […]” for “fraction.”
as §4

LoVo colon cancer cells = assay: DIMSCAN cytotoxicity assay, LoVo; assay type: cell-based, human; details: fatty acid 5 micromolar
Excerpt: as §1
as §2, with “cells.” for “cells. A comparison of the total fluorescence of a drug-treated cell population to the fluorescence of a similar number of untreated cells yields a survival fraction.”
(§5) In brief, 5,000 to 25,000 cells/well depending on the cell line (5,000 for solid tumor, 25,000 for ALL cell lines) were replicate plated into 60 wells of a 96-well tissue culture plate in 0.1 cc media and allowed to attach or recover overnight. Drug(s) are then added in 0.05 cc media to the final concentrations indicated. […] Total fluorescence of viable cells is then measured by digital imaging microscopy and the signal normalized to control cells. […]

[2] = test system: NCI-H1792 non-small cell lung cancer cells; assay: DIMSCAN cytotoxicity assay, NCI-H1792; assay type: cell-based; details: NCI-H1792, fatty acid 5 micromolar
Excerpt: as §1, §2, §3

[3] = test system: NCI-H146 small cell lung cancer cells; assay: DIMSCAN cytotoxicity assay, NCI-H146; assay type: cell-based, human; details: NCI-H146, fatty acid 5 micromolar
Excerpt: as §1
as §2, with “cells.” for “cells. A comparison of the total fluorescence of a drug-treated cell population to the fluorescence of a similar number of untreated cells yields a survival fraction.”
as §5

COG-LL-317 = assay: DIMSCAN cytotoxicity assay, COG-LL-317; assay type: cell-based; details: COG-LL-317, sphinganine 1 μM, GT-11 0.5 μM, 48 hours
Excerpt: as §1
as §2, with “fraction. […]” for “fraction.”
as §4

[4] = test system: pre-T acute lymphoblastic leukemia cell lines CCRF-CEM, MOLT-4, COG-LL-317 and COG-LL-332; assay: DIMSCAN cytotoxicity assay across the four pre-T ALL cell lines; assay type: cell-based, human; details: COG-LL-317, COG-LL-332, CCRF-CEM, 4-HPR 0-9 μM, 48 hours
Excerpt: as §1, with “For all experiments, ALL cell lines were seeded at 2. cells/mL in RPMI-1640 medium supplemented with 15% fetal bovine serum. Solid tumor cell lines were plated at 5×cells/mL in RPMI-1640 medium supplemented with 10% fetal bovine serum.” left out
as §2, with “A comparison of the total fluorescence of a drug-treated cell population to the fluorescence of a similar number of untreated cells yields a survival fraction.” left out

CCCCCCCCCCCCCCCCCC(=O)O [C18:0-fatty acid]
effect of fatty acid on fenretinide cytotoxicity [1]: did not increase cytotoxicity
effect of fatty acid co-treatment on cytotoxicity of sphinganine with GT-11 (MOLT-4 ALL cells): not
effect of fatty acid co-treatment on cytotoxicity of sphinganine with GT-11 (COG-LL-332): not
effect of fatty acid on fenretinide cytotoxicity (LoVo colon cancer cells): did not increase cytotoxicity
effect of fatty acid on fenretinide cytotoxicity [2]: did not increase cytotoxicity
effect of fatty acid on fenretinide cytotoxicity [3]: did not increase cytotoxicity
effect of fatty acid co-treatment on cytotoxicity of sphinganine with GT-11 (COG-LL-317): not
effect of fatty acid on fenretinide (4-HPR) cytotoxicity [4]: not
